In patent US20090238808A1, “Process for the identification of novel enzyme interacting compounds” (priority 2005, published 2009):

How the values were obtained:
Experiment in all cases: Kinobeads elution with test compound, mouse brain lysate, MS
Type in all cases: binding
Details in all cases: kinase released from kinobeads by specific elution
CaMKK2 = CaMKK2 (Mus musculus, UniProt Q8C078)
Procedure: (§1) This example illustrates competitive elution of proteins bound to kinobeads with non-modified test compounds (see particularly the fourth aspect of the invention). The kinobeads (as described in example 1) were contacted with mouse brains lysate, bound proteins were eluted with various test compounds and the released proteins were analysed by mass spectrometry.
(§2) The kinobeads were contacted with mouse brain lysate under conditions that allow the binding of the proteins in the lysate to the ligands. The binding conditions were close to physiological by choosing suitable buffer conditions preserving the function of the proteins. After removing non-captured proteins through a gentle washing procedure the bound proteins were contacted with a test compound for protein elution.
(§3) Various test compounds (see section 2.7) were used to release bound proteins following these steps:
(§4) 1. Resuspend beads with bound proteins (section 2.4) in 1×DP buffer/0.2% NP-40 as 1:3 slurry (volume/volume). 2. Transfer 20 μl the 1:3 slurry into MoBiTech columns (equivalent to 5 μl of beads). 3. Place the column into an Eppendorf tube and centrifuge it for 15 seconds at 800 rpm at 4° C. Close columns with lower lid. 4. Add 10 μl elution buffer containing 1.0 mM of the test compound (concentration ranges of 0.1 to 1.0 mM are suitable). As a control use elution buffer containing 2% DMSO or 2% DMF dependent on the solvent used for dissolving the test compound. Close column with upper lid. 5. Incubate for 30 minutes at 4° C. in an Eppendorf incubator at 700 rpm. 6. Open column (first top, then bottom), put column back into siliconized tube (SafeSeal Microcentrifuge Tubes, cat. no 11270, Sorenson BioScience, Inc.). To harvest the eluate centrifuge 2 minutes at 2.000 rpm in table top centrifuge at room temperature. The typical volume of the eluate is approximately 15 μl. 7. Add 5 μl 4× NuPAGE SDS Sample Buffer (Invitrogen, NP0007) containing 100 mM DTT (DTT has to be added just prior to use). 8. Incubate for 30 minutes at 50° C. 9. Add 1/10 volume of 200 mg/ml iodoacetamide, incubate for 30 min at room temperature, protect from light. This reaction leads to the alkylation of cysteines for mass spectrometry. 10. Before loading samples onto the gel, centrifuge samples for 5 minutes at 15.000 rpm in order to remove precipitates. 11. For protein separation apply 10 μl sample to NuPAGE 4-12% Bis-Tris gel (Invitrogen, NPO335). 2.6 Preparation of Stock Solutions used in this Protocol
(§5) Search criteria varied depending on which mass spectrometer was used for the analysis.

CSK = CSK (Mus musculus, UniProt P41241)
CSK, sequence (P41241 whole entry): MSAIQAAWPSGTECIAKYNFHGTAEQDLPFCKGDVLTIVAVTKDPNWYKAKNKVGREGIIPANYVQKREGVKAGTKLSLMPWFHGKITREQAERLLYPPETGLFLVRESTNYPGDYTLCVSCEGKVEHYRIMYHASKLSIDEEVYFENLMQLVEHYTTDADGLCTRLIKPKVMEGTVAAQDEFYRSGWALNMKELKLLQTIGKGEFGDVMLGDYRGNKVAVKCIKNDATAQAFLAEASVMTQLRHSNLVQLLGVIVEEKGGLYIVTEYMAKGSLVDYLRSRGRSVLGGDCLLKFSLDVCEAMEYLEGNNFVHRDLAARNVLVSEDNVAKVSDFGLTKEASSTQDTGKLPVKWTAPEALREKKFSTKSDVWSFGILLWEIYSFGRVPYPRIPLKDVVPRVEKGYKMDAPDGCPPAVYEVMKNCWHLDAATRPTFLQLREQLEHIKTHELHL
Procedure: as §1, §2, §3, §4, §5

JNK3 = molecular target: T1, JNK3 (Mus musculus, UniProt Q61831)
T1 construct: from tissue; host or cells: mouse brain
T1 sequence (Q61831 whole entry): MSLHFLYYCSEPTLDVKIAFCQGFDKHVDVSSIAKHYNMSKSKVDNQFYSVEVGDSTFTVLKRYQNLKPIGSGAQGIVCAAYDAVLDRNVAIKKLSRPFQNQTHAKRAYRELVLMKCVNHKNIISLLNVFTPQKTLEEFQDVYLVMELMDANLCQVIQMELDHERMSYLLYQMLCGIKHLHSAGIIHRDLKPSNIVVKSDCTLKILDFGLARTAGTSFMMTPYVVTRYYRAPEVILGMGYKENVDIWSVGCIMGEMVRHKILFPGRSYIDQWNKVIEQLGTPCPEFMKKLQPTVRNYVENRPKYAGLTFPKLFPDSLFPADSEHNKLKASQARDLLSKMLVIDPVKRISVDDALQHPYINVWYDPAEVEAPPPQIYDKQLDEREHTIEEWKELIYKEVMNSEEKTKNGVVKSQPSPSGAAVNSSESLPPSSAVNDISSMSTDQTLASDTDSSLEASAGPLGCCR
Procedure: as §1, §2, §3, §4, §5

EphA5 = EphA5 (Mus musculus, UniProt Q60629)
EphA5, sequence (Q60629 27-876): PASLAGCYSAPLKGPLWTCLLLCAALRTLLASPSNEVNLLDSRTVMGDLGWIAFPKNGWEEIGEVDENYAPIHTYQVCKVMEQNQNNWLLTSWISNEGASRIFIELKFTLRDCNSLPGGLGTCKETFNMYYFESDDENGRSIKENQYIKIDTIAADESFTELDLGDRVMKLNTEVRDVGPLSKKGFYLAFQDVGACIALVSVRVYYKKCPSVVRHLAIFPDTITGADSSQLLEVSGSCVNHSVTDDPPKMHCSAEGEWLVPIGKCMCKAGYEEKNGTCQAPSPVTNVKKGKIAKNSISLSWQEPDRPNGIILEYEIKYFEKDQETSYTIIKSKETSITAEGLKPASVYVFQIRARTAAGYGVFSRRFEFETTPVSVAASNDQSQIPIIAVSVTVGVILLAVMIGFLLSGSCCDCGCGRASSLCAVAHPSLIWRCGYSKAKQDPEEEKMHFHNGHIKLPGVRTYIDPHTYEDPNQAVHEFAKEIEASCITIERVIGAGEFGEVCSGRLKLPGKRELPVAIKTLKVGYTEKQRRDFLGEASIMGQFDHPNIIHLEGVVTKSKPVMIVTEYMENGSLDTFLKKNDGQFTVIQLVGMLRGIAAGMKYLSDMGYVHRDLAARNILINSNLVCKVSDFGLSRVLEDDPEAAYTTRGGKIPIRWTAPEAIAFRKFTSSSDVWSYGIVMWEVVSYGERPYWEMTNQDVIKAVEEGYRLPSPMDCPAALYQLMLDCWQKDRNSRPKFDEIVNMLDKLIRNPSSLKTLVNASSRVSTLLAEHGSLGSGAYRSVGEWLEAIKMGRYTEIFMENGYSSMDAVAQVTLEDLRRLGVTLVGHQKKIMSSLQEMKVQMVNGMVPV
Procedure: as §1, §2, §3, §4, §5

FAK = FAK (Mus musculus, UniProt P34152)
FAK, sequence (P34152 whole entry): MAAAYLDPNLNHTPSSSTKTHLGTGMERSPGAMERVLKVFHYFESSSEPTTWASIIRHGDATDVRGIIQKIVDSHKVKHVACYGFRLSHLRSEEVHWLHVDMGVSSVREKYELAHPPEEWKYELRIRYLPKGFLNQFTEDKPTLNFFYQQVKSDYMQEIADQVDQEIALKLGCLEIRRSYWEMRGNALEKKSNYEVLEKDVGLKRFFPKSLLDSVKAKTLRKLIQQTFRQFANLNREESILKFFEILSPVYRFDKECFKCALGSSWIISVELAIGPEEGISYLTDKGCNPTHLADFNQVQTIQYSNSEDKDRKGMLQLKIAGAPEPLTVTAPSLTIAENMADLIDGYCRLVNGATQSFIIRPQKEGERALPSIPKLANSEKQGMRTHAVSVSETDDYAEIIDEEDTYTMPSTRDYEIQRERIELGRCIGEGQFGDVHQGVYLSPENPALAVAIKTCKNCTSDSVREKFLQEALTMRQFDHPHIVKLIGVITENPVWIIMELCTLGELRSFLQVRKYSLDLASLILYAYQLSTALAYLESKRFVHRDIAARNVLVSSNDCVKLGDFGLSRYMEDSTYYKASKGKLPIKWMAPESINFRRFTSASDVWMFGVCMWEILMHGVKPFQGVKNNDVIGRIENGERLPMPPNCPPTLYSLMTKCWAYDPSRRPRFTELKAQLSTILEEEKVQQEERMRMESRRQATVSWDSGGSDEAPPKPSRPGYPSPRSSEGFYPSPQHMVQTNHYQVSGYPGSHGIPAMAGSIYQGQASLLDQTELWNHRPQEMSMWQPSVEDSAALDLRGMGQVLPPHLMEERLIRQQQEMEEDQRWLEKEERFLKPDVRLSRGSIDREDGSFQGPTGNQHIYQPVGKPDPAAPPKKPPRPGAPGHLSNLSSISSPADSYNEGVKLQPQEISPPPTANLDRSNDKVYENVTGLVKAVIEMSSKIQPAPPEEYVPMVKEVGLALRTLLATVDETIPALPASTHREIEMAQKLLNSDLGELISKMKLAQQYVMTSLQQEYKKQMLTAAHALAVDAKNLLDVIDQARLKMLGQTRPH
Procedure: as §1, §2, §3, §4, §5

GSK3B = molecular target: T2, GSK3B (Mus musculus, UniProt Q9WV60)
T2 construct: from tissue; host or cells: mouse brain
T2 sequence (Q9WV60 whole entry): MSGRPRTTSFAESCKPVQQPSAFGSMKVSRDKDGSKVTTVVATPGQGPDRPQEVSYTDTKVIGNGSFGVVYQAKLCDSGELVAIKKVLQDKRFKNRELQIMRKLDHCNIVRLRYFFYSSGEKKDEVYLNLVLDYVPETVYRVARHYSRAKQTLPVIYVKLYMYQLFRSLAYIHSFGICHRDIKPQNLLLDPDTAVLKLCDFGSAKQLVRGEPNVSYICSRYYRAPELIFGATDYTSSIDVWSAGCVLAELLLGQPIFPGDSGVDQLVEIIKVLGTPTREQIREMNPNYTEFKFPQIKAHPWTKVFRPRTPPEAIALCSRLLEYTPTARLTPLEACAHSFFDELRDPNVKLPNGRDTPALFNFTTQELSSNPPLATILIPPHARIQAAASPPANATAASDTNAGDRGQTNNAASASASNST
Excerpt: (§6) This example illustrates competitive elution of proteins bound to kinobeads with non-modified test compounds (see particularly the fourth aspect of the invention).
as §2, §3
as §4, with “Open column (first top, then bottom), put column back into siliconized tube (SafeSeal Microcentrifuge Tubes, cat. no 11270, Sorenson BioScience, Inc.).” left out, “For protein separation apply 10 μl sample to NuPAGE 4-12% Bis-Tris gel (Invitrogen, NPO335).” left out
as §5

YESps = test system: YESps
Procedure: as §1, §2, §3, §4, §5

CaMK2g = CaMK2g (Mus musculus, UniProt Q923T9)
CaMK2g, sequence (Q923T9 whole entry): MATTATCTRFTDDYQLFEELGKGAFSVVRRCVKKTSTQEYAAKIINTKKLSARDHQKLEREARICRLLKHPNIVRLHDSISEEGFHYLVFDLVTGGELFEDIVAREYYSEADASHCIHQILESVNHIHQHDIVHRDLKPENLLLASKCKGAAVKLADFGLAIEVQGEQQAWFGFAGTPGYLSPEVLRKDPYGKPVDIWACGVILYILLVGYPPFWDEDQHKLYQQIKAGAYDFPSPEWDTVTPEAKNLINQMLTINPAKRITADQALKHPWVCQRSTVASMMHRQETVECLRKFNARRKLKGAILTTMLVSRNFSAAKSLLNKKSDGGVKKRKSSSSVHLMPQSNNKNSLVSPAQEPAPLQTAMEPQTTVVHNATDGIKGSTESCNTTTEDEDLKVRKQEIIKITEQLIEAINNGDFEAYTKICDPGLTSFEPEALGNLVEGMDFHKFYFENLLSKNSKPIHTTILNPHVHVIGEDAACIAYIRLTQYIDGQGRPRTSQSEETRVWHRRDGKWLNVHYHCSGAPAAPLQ
Excerpt: as §6, §2, §3
as §4, with “Open column (first top, then bottom), put column back into siliconized tube (SafeSeal Microcentrifuge Tubes, cat. no 11270, Sorenson BioScience, Inc.).” left out, “For protein separation apply 10 μl sample to NuPAGE 4-12% Bis-Tris gel (Invitrogen, NPO335).” left out
as §5

MAP2K1 = molecular target: T3, MAP2K1 (Mus musculus, UniProt P31938)
T3 construct: from tissue; host or cells: mouse brain
T3 sequence (P31938 whole entry): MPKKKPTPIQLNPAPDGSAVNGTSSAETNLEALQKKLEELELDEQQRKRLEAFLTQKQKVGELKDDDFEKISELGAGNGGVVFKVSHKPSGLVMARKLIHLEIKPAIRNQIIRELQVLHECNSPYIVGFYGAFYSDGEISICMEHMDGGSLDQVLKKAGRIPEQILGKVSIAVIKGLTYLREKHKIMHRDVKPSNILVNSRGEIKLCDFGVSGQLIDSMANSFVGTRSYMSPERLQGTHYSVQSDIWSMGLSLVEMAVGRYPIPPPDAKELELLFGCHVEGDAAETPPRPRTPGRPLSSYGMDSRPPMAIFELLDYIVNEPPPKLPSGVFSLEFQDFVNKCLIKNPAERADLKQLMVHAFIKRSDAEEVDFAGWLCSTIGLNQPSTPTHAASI
Procedure: as §1, §2, §3, §4, §5

CaMKK2, sequence (Q8C078 whole entry): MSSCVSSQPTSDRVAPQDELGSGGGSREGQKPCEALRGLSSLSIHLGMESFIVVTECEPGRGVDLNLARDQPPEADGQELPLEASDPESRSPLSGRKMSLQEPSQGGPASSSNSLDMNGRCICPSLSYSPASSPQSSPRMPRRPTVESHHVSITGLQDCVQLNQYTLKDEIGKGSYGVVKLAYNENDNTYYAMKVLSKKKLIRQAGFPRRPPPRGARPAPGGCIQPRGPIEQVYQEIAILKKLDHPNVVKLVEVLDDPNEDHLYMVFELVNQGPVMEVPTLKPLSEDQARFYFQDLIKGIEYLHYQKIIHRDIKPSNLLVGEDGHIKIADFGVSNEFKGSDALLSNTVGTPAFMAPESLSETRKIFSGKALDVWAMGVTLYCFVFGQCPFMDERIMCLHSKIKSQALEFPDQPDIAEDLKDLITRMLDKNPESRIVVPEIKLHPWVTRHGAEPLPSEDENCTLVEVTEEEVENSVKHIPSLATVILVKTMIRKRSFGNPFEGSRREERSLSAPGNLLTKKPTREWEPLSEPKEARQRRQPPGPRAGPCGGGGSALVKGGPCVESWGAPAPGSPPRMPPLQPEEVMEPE

SMILES	mass spectrometry score, CaMKK2 (CaMKK2)	number of identified peptides, CaMKK2 (CaMKK2)	mass spectrometry score, CSK (CSK)	number of identified peptides, CSK (CSK)	mass spectrometry score, JNK3 (JNK3)	number of identified peptides, JNK3 (JNK3)	mass spectrometry score, EphA5 (EphA5)	number of identified peptides, EphA5 (EphA5)	mass spectrometry score, FAK (FAK)	number of identified peptides, FAK (FAK)	mass spectrometry score, GSK3B (GSK3B)	number of identified peptides, GSK3B (GSK3B)	mass spectrometry score, YESps (YESps)	number of identified peptides, YESps (YESps)	mass spectrometry score, CaMK2g (CaMK2g)	number of identified peptides, CaMK2g (CaMK2g)	mass spectrometry score, MAP2K1 (MAP2K1)	number of identified peptides, MAP2K1 (MAP2K1)
Cn1c(=O)c(-c2c(Cl)cccc2Cl)cc2cnc(Nc3ccc(CN)cc3)cc21 [CZC7324]	101	3	809	19	782	49	144	3	322	10	789	19	–	–	–	–	–	–
NCc1ccc(Nc2ncc(F)c(Nc3ccccc3)n2)cc1 [CZC00008004]	522	12	–	–	642	23	–	–	257	8	881	26	110	3	527	27	–	–
CNC1CC2OC(C)(C1OC)n1c3ccccc3c3c4c(c5c6ccccc6n2c5c31)C(=O)NC4 (stereo not shown) [CZC9280]	282	10	307	8	363	10	–	–	–	–	–	59	480	12	–	25	49	2
CC(C)[C@H](CO)Nc1nc(Nc2ccc(C(=O)O)c(Cl)c2)c2ncn(C(C)C)c2n1 [Purvalanol B, reference compound]	465	9	492	12	284	7	330	14	269	6	1037	30	304	7	–	–	78	2
CCCCCCCCCCCCOS(=O)(=O)[O-].[Na+] [SDS]	338	10	365	15	447	27	246	9	160	6	763	72	236	13	379	42	90	4
